What was measured:
Assay in all cases: Kinase selectivity, DiscoverX scanMAX Kinase assay panel (% control)
Assay type in all cases: binding
[1] = target: T1, kinases of the scanMAX Kinase assay panel (Homo sapiens, UniProt Q9NY57); settings: kinase YANK2; 1 uM in DMSO
T1 construct: purchased DiscoverX Co. (contract measurement) scanMAX Kinase assay panel
In short: (§1)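 Single-point screen, 1 uM cpd in DMSO. % ctrl = (cpd − pos ctrl)/(neg ctrl − pos ctrl)×100; pos ctrl = 0%, DMSO neg ctrl = 100%. Hit cutoff <35%.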

[2] = target: T2, kinases of the scanMAX Kinase assay panel (Homo sapiens, UniProt P36897); settings: kinase TGFBR1; 1 uM in DMSO
T2 construct: purchased DiscoverX Co. (contract measurement) scanMAX Kinase assay panel
T2 sequence (P36897 34-503): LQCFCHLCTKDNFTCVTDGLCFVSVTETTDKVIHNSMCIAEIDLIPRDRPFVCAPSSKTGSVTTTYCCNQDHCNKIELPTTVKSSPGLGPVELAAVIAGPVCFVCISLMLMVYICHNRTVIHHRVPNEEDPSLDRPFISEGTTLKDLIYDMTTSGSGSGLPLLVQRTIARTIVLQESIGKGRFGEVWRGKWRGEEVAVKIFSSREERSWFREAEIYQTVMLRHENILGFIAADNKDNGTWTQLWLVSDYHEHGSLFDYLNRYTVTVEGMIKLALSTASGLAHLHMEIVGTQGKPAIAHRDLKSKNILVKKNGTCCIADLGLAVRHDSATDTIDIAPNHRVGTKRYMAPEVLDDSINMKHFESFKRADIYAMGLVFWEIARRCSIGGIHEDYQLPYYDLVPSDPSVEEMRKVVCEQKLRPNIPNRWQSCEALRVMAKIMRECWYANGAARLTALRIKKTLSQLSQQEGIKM
In short: as §1

[3] = target: T3, kinases of the scanMAX Kinase assay panel (Homo sapiens, UniProt P42336); settings: PIK3CA; 1 uM
T3 construct: purchased DiscoverX Co. (contract measurement) scanMAX Kinase assay panel
T3 sequence (P42336 whole entry): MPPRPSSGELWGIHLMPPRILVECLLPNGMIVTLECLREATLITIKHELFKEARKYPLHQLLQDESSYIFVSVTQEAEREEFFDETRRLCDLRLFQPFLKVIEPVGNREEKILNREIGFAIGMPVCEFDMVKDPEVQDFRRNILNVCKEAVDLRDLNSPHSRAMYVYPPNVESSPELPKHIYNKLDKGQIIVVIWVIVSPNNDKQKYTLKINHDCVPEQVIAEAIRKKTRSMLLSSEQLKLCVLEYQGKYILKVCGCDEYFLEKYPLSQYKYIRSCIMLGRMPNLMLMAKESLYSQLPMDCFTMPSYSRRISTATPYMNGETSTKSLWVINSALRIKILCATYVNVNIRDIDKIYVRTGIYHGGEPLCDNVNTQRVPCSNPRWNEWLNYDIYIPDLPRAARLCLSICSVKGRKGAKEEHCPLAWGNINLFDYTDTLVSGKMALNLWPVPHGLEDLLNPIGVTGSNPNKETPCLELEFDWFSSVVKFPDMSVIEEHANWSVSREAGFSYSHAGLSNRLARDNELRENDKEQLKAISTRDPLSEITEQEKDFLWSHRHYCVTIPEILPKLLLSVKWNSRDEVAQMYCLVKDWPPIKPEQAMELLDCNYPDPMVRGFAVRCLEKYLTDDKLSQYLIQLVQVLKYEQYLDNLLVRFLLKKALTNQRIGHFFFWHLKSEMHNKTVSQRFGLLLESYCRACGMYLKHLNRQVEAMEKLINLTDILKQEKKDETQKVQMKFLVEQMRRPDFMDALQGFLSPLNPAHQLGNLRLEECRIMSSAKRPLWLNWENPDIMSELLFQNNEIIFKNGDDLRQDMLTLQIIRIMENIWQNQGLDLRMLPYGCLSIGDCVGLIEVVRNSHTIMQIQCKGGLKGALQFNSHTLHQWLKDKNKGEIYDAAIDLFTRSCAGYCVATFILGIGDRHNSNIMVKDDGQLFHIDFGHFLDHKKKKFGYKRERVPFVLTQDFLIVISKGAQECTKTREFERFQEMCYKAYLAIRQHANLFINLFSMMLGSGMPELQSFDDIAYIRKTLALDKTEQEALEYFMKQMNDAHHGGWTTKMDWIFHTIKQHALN
In short: as §1

[4] = target: T4, kinases of the scanMAX Kinase assay panel (Homo sapiens, UniProt O15530); settings: PDPK1; 1 uM
T4 construct: purchased DiscoverX Co. (contract measurement) scanMAX Kinase assay panel
T4 sequence (O15530 1-556): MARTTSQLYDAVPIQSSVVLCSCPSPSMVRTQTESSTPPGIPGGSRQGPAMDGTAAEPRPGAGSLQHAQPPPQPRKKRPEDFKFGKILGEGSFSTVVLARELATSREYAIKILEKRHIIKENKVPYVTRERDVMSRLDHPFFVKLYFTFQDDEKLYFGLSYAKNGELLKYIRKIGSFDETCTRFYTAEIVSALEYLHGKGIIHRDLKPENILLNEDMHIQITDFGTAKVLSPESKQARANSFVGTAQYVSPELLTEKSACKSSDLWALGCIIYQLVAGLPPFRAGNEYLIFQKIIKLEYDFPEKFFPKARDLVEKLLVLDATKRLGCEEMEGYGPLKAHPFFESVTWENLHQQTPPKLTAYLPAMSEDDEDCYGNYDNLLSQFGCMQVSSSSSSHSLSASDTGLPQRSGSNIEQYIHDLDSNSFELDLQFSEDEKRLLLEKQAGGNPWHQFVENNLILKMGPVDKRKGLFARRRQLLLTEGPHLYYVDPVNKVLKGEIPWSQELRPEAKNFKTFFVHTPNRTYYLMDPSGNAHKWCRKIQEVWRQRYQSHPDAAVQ
In short: as §1

[5] = target: T5, kinases of the scanMAX Kinase assay panel (Homo sapiens, UniProt Q8WU08); settings: kinase YANK1; 1 uM in DMSO
T5 construct: purchased DiscoverX Co. (contract measurement) scanMAX Kinase assay panel
T5 sequence (Q8WU08 whole entry): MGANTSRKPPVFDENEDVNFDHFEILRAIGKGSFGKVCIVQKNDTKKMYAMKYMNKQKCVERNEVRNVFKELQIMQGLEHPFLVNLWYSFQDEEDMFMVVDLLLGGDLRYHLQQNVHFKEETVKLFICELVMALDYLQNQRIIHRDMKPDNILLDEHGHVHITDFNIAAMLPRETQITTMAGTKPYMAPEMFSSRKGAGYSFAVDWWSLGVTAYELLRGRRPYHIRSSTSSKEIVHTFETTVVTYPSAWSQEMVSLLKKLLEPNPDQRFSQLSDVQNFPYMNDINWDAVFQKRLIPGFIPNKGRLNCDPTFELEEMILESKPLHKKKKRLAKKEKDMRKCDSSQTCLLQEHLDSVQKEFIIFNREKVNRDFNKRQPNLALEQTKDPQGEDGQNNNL
In short: as §1

[6] = target: T6, kinases of the scanMAX Kinase assay panel (Homo sapiens, UniProt P51451); settings: BLK; 1 uM
T6 construct: purchased DiscoverX Co. (contract measurement) scanMAX Kinase assay panel
T6 sequence (P51451 whole entry): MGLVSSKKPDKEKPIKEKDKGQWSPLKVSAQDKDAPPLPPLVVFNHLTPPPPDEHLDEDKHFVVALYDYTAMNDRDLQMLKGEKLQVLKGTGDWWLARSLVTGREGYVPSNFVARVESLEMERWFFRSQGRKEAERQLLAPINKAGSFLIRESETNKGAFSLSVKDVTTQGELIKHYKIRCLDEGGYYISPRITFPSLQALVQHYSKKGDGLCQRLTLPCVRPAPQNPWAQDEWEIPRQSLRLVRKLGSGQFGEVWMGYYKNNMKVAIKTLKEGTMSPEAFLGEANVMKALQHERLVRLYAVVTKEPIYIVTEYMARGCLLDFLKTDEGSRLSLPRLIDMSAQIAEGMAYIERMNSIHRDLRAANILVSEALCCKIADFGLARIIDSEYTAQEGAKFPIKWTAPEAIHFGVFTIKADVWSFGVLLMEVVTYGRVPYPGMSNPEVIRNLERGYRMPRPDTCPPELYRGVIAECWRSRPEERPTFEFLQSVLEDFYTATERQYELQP
In short: as §1

[7] = target: T7, kinases of the scanMAX Kinase assay panel (Homo sapiens, UniProt P51955); settings: NEK2; 1 uM
T7 construct: purchased DiscoverX Co. (contract measurement) scanMAX Kinase assay panel
T7 sequence (P51955 1-445): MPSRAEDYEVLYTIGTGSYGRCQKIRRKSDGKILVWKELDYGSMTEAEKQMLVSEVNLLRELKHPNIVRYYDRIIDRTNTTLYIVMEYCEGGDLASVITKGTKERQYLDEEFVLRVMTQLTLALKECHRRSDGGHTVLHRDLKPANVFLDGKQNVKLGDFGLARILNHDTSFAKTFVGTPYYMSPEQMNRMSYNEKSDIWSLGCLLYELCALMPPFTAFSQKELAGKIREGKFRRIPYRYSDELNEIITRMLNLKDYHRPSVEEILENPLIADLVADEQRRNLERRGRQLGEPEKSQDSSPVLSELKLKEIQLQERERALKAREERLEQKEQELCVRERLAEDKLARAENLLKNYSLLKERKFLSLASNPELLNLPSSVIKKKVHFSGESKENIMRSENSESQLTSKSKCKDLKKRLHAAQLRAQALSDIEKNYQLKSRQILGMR
In short: as §1

[8] = target: T8, kinases of the scanMAX Kinase assay panel (Homo sapiens, UniProt Q86YV6); settings: MYLK4; 1 uM
T8 construct: purchased DiscoverX Co. (contract measurement) scanMAX Kinase assay panel
T8 sequence (Q86YV6 1-388): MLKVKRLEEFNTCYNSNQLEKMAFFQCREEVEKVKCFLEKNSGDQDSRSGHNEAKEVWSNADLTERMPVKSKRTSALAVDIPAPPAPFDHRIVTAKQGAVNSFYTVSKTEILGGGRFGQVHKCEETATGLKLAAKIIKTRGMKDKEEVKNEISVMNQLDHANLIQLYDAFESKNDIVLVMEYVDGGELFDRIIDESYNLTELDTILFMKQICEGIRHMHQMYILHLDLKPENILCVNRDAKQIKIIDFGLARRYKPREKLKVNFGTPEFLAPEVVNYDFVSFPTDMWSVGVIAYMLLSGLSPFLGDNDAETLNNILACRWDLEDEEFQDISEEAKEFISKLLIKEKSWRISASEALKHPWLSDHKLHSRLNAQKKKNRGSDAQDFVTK
In short: as §1

T1 sequence (Q9NY57 whole entry): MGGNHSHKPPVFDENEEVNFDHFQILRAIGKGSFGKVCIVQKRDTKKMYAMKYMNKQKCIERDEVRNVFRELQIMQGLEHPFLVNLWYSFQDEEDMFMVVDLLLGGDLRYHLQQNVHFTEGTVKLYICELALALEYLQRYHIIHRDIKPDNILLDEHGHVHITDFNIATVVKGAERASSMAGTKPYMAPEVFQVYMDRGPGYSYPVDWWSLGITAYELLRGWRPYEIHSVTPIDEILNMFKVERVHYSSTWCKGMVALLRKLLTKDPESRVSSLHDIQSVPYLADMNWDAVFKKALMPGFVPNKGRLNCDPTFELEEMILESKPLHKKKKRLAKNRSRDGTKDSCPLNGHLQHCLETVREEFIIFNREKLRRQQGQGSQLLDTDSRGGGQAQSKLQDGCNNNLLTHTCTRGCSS

SMILES	remaining binding at 1 µM [1] [%]	remaining binding at 1 µM [2] [%]	remaining binding at 1 µM [3] [%]	remaining binding at 1 µM [4] [%]	remaining binding at 1 µM [5] [%]	remaining binding at 1 µM [6] [%]	remaining binding at 1 µM [7] [%]	remaining binding at 1 µM [8] [%]
CNc1nc(Nc2ccc(C(=O)N3CCOCC3)cc2OC)nc2[nH]cc(C#N)c12 [Example 1, 2-((2-methoxy-4-(morpholine-4-carbonyl)phenyl)amino)-4-(methylamino)-7H-pyrrolo[2,3-d]pyrimidine-5-carbonitrile]	85	5.1	87	81	76	100	97	90
CC1(Nc2nc(Nc3cnn([C@H]4CCN(C5COC5)C[C@@H]4F)c3Cl)nc3[nH]cc(C#N)c23)CC1 [Example 52, 2-((5-chloro-1-((3S,4S)-3-fluoro-1-(oxetane-3-yl)piperidine-4-yl)-1H-pyrazole-4-yl)amino)((1-methylcyclopropyl)amino)-7H-pyrrolo[2,3-d]pyrimidine-5-carbonitrile]	100	91	60	70	88	2.2	70	82
CCNc1nc(Nc2ccc(C(=O)N3CCC(N4CCOCC4)CC3)cc2OC)nc2[nH]cc(C(F)(F)F)c12 [Example 104, (4-((4-(ethylamino)-5-(trifluoromethyl)-7H-pyrrolo[2,3-d]pyrimidine-2-yl)amino)-3-methoxyphenyl)(4-morpholinopiperidine-1-yl)methanone]	100	100	99	100	82	100	74	89
